The target in series [1] is T1, Aβ1–42 (Homo sapiens, UniProt P05067).
T1 construct: Aβ1–42 (Sigma, St. Louis, MO, USA; counterion, NaOH) stock solution was prepared by dissolving Aβ1–42 peptide in ammonium hydroxide; purchased Sigma
As to the kind of experiment: Inhibition of Cu^2+-induced Aβ1–42 aggregation (ThT-binding assay). The conditions noted are these: [Aβ] = 20 μM, [Cu^2+] = 20 μM, [compound] = 40 μM; 37 °C, 24 h. The class given is biochemical. As for the experimental part: To investigate the ability of compound 6b1 to inhibit Cu^2+-induced Aβ1–42 aggregation, the ThT-binding assay was performed.
Aβ was diluted in […] (pH 6.6) with […]. The mixture of the peptide (10 μL, 20 μM, final concentration) with or without copper (10 μL, 20 μM, final concentration) and the test compound (10 μL, 40 μM, final concentration) was incubated at 37 °C for 24 h. The 30 μL of the sample was diluted to a final volume of 200 μL with 50 mM glycine-NaOH buffer (pH 8.0) containing thioflavin T (5 μM). The detection method was the same as that of self-induced Aβ aggregation experiment.

Series [2] can be described thus: Cytotoxicity on SH-SY5Y cells (MTT). The format is cell-based, human. To be noted: human, SH-SY5Y neuroblastoma cells; MTT, 24 h; mean ± SEM of three measurements. How it is done: The cytotoxicity of our synthesized compounds was examined in human neuroblastoma SH-SY5Y cells. The cell viability was determined by using methyl thiazolyl tetrazolium (MTT) colorimetry, the cells were treated with different concentrations of compounds (0–100 μM). The result is shown in the Supplementary Materials (Table S1).
The cytotoxicities of the compounds were evaluated using the MTT assay. SH-SY5Y cells were subcultured in 96-well plates at a seeding density of 1 × 10^4 cells per well. After 24 h, the medium was removed and treated with different concentrations of tested compounds for 24 h at 37 °C. The survival of cells was determined with MTT assay. Then 80 μL of medium and 20 μL of MTT (0.5 mg/mL, final concentration) were added to each well and incubated for another 4 h. After the removal of MTT, the formazan crystals were dissolved in DMSO. The amount of formazan was measured using a microculture plate reader at the wavelength of 570 nm. Each concentration was performed in triplicate.

The nature of series [3]: Oxygen radical absorbance capacity with fluorescein (ORAC-FL) assay. How it is done: Oxidative stress is another crucial event in AD pathogenesis. In order to determine antioxidant activities of our synthetic compounds, the oxygen radical absorbance capacity method with fluorescein (ORAC-FL) assay was performed. with Trolox (6-hydroxy-2,5,7,8-tetramethylchroman-2-carboxylic acid) as the standard, and their antioxidant activity was expressed as Trolox equivalents.
The antioxidant activities of the compounds in vitro were determined by the oxygen radical absorbance capacity fluorescein (ORAC-FL) assay. The tested compounds and (±)-6-hydroxy-2,5,7,8-tetramethylchroman-2-carboxylic acid (Trolox) were dissolved in DMSO at a concentration of 10 mM, and then diluted with 75 mM potassium phosphate buffer (pH 7.4) to 50 μM and 10 μM for use. The fluorescein (FL) stock solution (3.4 mM) was diluted with the same buffer to 136 nM. All the assays were conducted with 75 mM potassium phosphate bufffer (pH 7.4), and the final reaction mixture was 200 μL.
The mixture of compounds (or buffer) (20 μL) and fluorescein (FL, 120 μL) were incubated for 15 min at 37 °C in a black 96-well plate. Then 2,2′-azobis-(amidino-propane)-dihydrochloride (AAPH) solution (60 μL, 40 mM) was rapidly added to the reaction mixture. The fluorescence was recorded every 5 min for 240 min at 485 nm (excitation wavelength) and 535 nm (emission wavelength) (Varioskan Flash Multimode Reader, Thermo Scientific, Waltham, MA, USA), and each sample was prepared and measured for three times independently. […] The net AUC for a sample was calculated using the expression net AUC = AUCsample − AUCblank, The ORAC-FL value of each sample was calculated using the equation of net AUCsample/(AUCTrolox – AUCblank), which was expressed as Trolox equivalents.

Another series has as its system SH-SY5Y cells. Description: Cellular ROS detection (DCFH-DA) in SH-SY5Y cells treated with t-BuOOH. The conditions noted are these: compound 2.5 μM; 0.1 mM t-BuOOH; compared with Trolox. The class given is cell-based, human. How it is done:
To further investigate their antioxidant activity in SH-SY5Y cells, cellular ROS detection assay based on dichlorofluorescein diacetate (DCFH-DA) was performed. with Trolox and N-acetyl-L-cysteine (NAC) as reference compounds.
SH-SY5Y cells were maintained in Dulbecco’s modified Eagle’s medium (DEME) and supplemented with 1 mM glutamine, 10% fetal calf serum, 100 U/mL penicillin, and 100 μg/mL streptomycin. The cultures were maintained at 37 °C in a humidified incubator containing 5% CO2 and were passaged twice weekly.
The antioxidant activity of the compounds in SH-SY5Y cells were tested with the fluorescent probe (2′,7′-dichlorofluorescein diacetate, DCFH-DA) as reported with some variation. SH-SY5Y cells were sub-cultured in 96-well plates at a seeding density of 1 × 10^4 cells per well for 24 h, then the medium was removed, the tested compounds (2.5 μM) was added and incubated for another 24 h at 37 °C. After that, the cells were washed with PBS and incubated with 5 μM DCFH-DA in PBS at 37 °C in 5% CO2 for 30 min. Then DCFH-DA was removed, the cells were washed three times and incubated with 0.1 mM t-BuOOH in PBS for 30 min. After the incubation, the cell fluorescence from each well was measured at 485 nm excitation and 535 nm emission with a monochromator based multimode microplate reader ([…] M1000).

For series [4], the target named is T1, Aβ1–42. Description: Inhibition of self-induced Aβ1–42 aggregation (ThT fluorescence assay). The class given is biochemical. To be noted: for inhibition at 20 µM: inhibitor 20 μM, Aβ1–42 50 μM, ThT, 37 °C, 72 h, mean ± SD. As for the experimental part: The formation and aggregation of Aβ1–42 in the brain leads to neurotoxicity in AD. In order to evaluate the activity of our new synthetic compounds to inhibit Aβ1–42 self-induced aggregation, the thioflavin (ThT) fluorescence assay was performed.
All ThT experiments were performed according to our previously published methods. Aβ1–42 (Sigma, St. Louis, MO, USA; counterion, NaOH) stock solution was prepared by dissolving Aβ1–42 peptide in ammonium hydroxide (1% v/v), and diluting with 20 mM phosphate buffer (pH 7.4) to 100 μM. The tested compounds were firstly dissolved in DMSO at a concentration of 10 mM, and then diluted with 20 mM phosphate buffer (pH 7.4) to 40 μM.
For the inhibition of self-induced Aβ1–42 aggregation. Aβ1–42 peptide (2 μL, 50 μM, final concentration) with the tested compound (2 μL, 20 μM, final concentration) or 20 mM phosphate buffer (2 μL) was incubated in 20 mM phosphate buffer (pH 7.4) at 37 °C for 72 h. After incubation, the samples were diluted to a final volume of 36 μL with 50 mM glycine-NaOH buffer (pH 8.5) containing 5 μM Thioflavin T. Fluorescence signal was measured (excitation wavelength 450 nm, emission wavelength 485 nm, and slit widths set to 5 nm) on a monochromator-based multimode microplate reader ([…] M1000, TECAN, Hombrechtikon, Switzerland), adapted for 384-well microtiter plates. […] Each compound was examined in triplicate.

A further series has as its target T2, Aβ1–42 fibrils (Homo sapiens, UniProt P05067).
T2 construct: Aβ1–42 (Sigma, St. Louis, MO, USA; counterion, NaOH) stock solution was prepared by dissolving Aβ1–42 peptide in ammonium hydroxide; purchased Sigma
As to the kind of experiment: TEM assay of Aβ1–42 fibrils. The format is biochemical. The conditions noted are these: compound 20 μM; 37 °C, 24 h. How it is done: To further complement the ThT binding assay, A transmission electron microscopy (TEM) assay was employed to monitor and clarify the effect of compound 6b1 on Aβ1−42 aggregation.
The ability of compound 6b1 to disaggregate self-induced Aβ1–42 aggregation fibrils was also investigated. Aβ1–42 fibrils were prepared by incubating fresh Aβ1–42 for 24 h at 37 °C, and the test compound was added to the sample and incubated for another 24 h at 37 °C. Then the sample was analyzed by ThT binding assay and TEM assay.
Aβ1–42 peptide (Sigma) was dissolved in 20 mM phosphate buffer (pH 7.4) at 4 °C to 100 μM before use.
Aβ1–42 was incubated at 37 °C for 24 h. Then, 40 μM tested compound was added and incubated at 37 °C for another 24 h. The final concentrations of Aβ1–42 and the compounds were 50 μM and 20 μM, respectively. After incubation, aliquots (5 μL) of the samples were placed on a carbon-coated copper/rhodium grid for 2 min at room temperature. Each grid was stained with uranyl acetate (1%, 5 μL) for 2 min. Excess staining solution was removed and the specimen was transferred for imaging with transmission electron microscopy (JEOL JEM-1400, Tokyo, Japan).

T1 sequence (P05067 672-713): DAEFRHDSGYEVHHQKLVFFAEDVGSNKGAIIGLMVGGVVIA
T2 sequence (P05067 672-713): as above

With `Oc1c(I)cc(Cl)c2cccnc12` [CQ, clioquinol], the “Inhibition of Cu^2+-induced Aβ aggregation” value at Aβ1–42 [1] turned out to be 83.6%.

Usually melting point stands for the temperature, or range, at which the solid turns liquid. As usually defined, the IC50 is the concentration that inhibits the measured activity by half. One may read the inhibition as how much of the control response was suppressed. With `CCN(CC)CCCNc1cc(/C=C/c2ccc(N(CC)CC)cc2)nc2ccccc12` [Compound 6a1, (E)-N^1-(2-(4-(Diethylamino)styryl)quinolin-4-yl)-N^3,N^3-diethylpropane-1,3-diamine], the melting point lay within 182.3 to 184 °C. This molecule gave an IC50 at 24 h in series [2] of 189 µM. In addition, in series [3] (compound 1 μM), the ORAC is 5.92 ± 0.03 μmol of Trolox equivalents/μmol of tested compounds. The “Antioxidant activity in SH-SY5Y cells (ROS generation, DCFH-DA fluorescence)” value (“Antioxidant activity in SH-SY5Y cells” below) in the series with SH-SY5Y cells is recorded as “more antioxidant activity than Trolox”. For the same molecule, at Aβ1–42 [4] (ThT fluorescence method, mean ± SD of three experiments, read-out: IC50 against self-induced Aβ1–42 aggregation), the IC50 worked out at 7.8 ± 0.4 µM. For the same molecule, at Aβ1–42 [4], at 20 µM the inhibition was 90.2 ± 1.3%.

Molecule `CCN(CC)CCCNc1cc(/C=C/c2ccc(N3CCOCC3)cc2)nc2ccccc12` [Compound 6a4, (E)-N^1,N^1-Diethyl-N^3-(2-(4-morpholinostyryl)quinolin-4-yl)propane-1,3-diamine] had a melting point of 172.5 to 174.3 °C. The same molecule yielded an IC50 at 24 h in series [2] of 145.2 ± 0.9 µM. Further, the ORAC in series [3] (compound 1 μM) is recorded as 4.16 ± 0.04 μmol of Trolox equivalents/μmol of tested compounds. Moreover, in series [3] (compound 5 μM), the ORAC was 4.52 ± 0.03 μmol of Trolox equivalents/μmol of tested compounds. Moreover, the “Antioxidant activity in SH-SY5Y cells” value in the series with SH-SY5Y cells is given as “a little weaker antioxidant activity than Trolox”. This molecule registered an inhibition at 20 µM on Aβ1–42 [4] of 87.9 ± 1.1%.

For the molecule `CN(C)CCCNc1cc(/C=C/c2c[nH]c3ccccc23)nc2ccccc12` [Compound 6b3, (E)-N^1-(2-(2-(1H-Indol-3-yl)vinyl)quinolin-4-yl)-N^3,N^3-dimethylpropane-1,3-diamine], the melting point was in the range of 168.2 to 169.5 °C. Besides, the IC50 at 24 h in series [2] amounted to 168.1 ± 0.2 µM. Further, in series [3] (compound 1 μM), the ORAC is recorded as 3.96 ± 0.08 μmol of Trolox equivalents/μmol of tested compounds. In series [3] (compound 5 μM), the ORAC is listed as 4.21 ± 0.08 μmol of Trolox equivalents/μmol of tested compounds. The “Antioxidant activity in SH-SY5Y cells” value in the series on SH-SY5Y cells is “a little weaker antioxidant activity than Trolox”. The molecule further registered an inhibition at 20 µM against Aβ1–42 [4] of 87.2 ± 2.1%.

Regarding `Oc1ccc(/C=C/c2cc(O)cc(O)c2)cc1` [Res, resveratrol, reference compound], at Aβ1–42 fibrils, the “TEM: Aβ1–42 fibril formation in presence of compound” value is recorded as “a few thick fibrils”. Besides, the “Inhibition of Cu^2+-induced Aβ aggregation” value on Aβ1–42 [1] amounted to 71.2%. At 20 µM the inhibition against Aβ1–42 [4] was 77.2 ± 1.1%.

These data come from paper PMC6321145 (Molecules, 2018).
